Patent US8575125B2, “Selective inhibitors of CB2 receptor expression and/or activity for the treatment of obesity and obesity-related disorders” (Institut National de la Sante et de la Recherche Medicale …, priority 2007, dated 2013)

Tests used:
[1] = test system: overweight and obese patients; conditions: 4 clinical studies, more than 6000 overweight and obese patients; cited from earlier work
ob/ob mice = experiment: Impact of CB2 antagonist on epididymal fat inflammatory gene expression in obese ob/ob mice (quantitative RT-PCR); assay type: in vivo, mouse; conditions: 1 mg/kg daily intraperitoneal over 17 days, six week-old ob/ob mice
Protocol: Animals and Experimental Design: Experimental protocols were conducted in accordance with French government policies (Services véterinaires de la Santé et de la production animale, Ministère français de l'Agriculture). Animals were housed under 12 hours of light/12 hours of dark cycle, in a temperature-controlled environment. The impact of the CB2 antagonist AM630 was evaluated in 6 week-old male obese Lep^Ob/Lep^Ob male mice (ob/ob) and lean Lep^Ob+/Lep^Ob counterparts (ob+/ob). Mice received an 17 day-course of daily intraperitoneal injection of 1 mg/kg AM630 (n=10 ob/ob and n=5 ob+/ob) or vehicle (n=8 ob/ob and n=5 ob+/ob). AM630 (Tocris) was freshly dissolved in a vehicle solution containing 1 drop of Tween 80 in 0.1 ml dimethylsulfoxide (DMSO), sonicated, and further diluted 50 times in NaCl 9‰. Body weight and food intake were measured daily. Mice were sacrificed after overnight fasting. White epididymal adipose tissue was removed, weighed and either fixed in buffered formalin, or snap frozen in liquid nitrogen. All samples were stored at −80° C. until use.
RNA preparation and RT-PCR: Total RNA was extracted from mice epididymal fat using RNeasy® Lipid Tissue Mini kit (QIAGEN). Quantitative RT-PCR was carried out on a Light Cycler (Roche Diagnostics), as previously described.
The PCR amplified products were analyzed on a 2% agarose gel, and sequenced.

| SMILES | efficacy with regard to weight loss and reduction of the associated cardiometabolic risks [1] | fat inflammatory response (ob/ob mice; epididymal fat, vs vehicle) | F4/80 mRNA expression in epididymal fat (ob/ob mice; vs vehicle (FIG. 16, p<0.05)) | MCP-1 mRNA expression in epididymal fat (ob/ob mice; vs vehicle (FIG. 16, p<0.05)) | TNF-alpha mRNA expression in epididymal fat (ob/ob mice; vs vehicle (FIG. 16, p<0.05)) |
| --- | --- | --- | --- | --- | --- |
| Cc1c(C(=O)NN2CCCCC2)nn(-c2ccc(Cl)cc2Cl)c1-c1ccc(Cl)cc1 [rimonabant, Rimonabant] | consistent efficacy |  |  |  |  |
| COc1ccc(C(=O)c2c(C)n(CCN3CCOCC3)c3cc(I)ccc23)cc1 [AM 630] |  | reduced | lesser induction | lesser induction | lesser induction |
